Laboratory results: US12595253B2, “Benzamides of pyrazolylamino-pyrimidinyl derivatives, and compositions and methods thereof” (LYNK PHARMACEUTICALS CO. LTD., priority 2019, dated 2026)
One block for each compound: values may come before it.

What was measured:
FLT3 = molecular target: T1, FLT3 (Homo sapiens, UniProt P36888); test: FLT3 microfluidic kinase assay; assay type: biochemical
T1 construct: purchased Carna Biosciences
T1 sequence (P36888 27-993): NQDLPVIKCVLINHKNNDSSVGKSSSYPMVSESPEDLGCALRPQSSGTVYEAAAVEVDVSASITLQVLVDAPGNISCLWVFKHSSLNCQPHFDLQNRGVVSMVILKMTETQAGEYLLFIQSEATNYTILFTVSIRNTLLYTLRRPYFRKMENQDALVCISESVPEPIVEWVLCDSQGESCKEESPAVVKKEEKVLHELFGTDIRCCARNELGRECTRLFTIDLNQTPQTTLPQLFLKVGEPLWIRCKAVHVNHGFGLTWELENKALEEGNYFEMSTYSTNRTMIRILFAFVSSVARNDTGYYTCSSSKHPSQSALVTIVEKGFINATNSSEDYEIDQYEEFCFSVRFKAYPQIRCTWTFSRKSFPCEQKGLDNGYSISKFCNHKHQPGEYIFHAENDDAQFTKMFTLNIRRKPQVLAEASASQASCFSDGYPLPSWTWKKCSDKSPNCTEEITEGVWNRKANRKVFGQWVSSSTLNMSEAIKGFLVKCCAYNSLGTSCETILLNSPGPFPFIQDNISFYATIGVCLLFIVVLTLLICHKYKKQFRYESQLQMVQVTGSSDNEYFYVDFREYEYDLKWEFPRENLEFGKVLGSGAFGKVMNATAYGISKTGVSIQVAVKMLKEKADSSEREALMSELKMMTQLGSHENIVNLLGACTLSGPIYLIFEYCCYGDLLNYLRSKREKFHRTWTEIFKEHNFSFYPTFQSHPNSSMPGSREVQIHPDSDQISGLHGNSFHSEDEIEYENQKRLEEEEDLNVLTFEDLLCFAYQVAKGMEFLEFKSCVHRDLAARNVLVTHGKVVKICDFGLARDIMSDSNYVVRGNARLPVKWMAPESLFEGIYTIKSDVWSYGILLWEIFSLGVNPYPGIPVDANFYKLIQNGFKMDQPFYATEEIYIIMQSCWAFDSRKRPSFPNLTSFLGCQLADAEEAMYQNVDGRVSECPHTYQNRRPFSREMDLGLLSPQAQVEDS
Protocol: Compounds were tested against FLT3, FLT3ITD and FLT3D835Y.
Assay Formats: FLT3 activity was determined in the reaction buffer 50 mM HEPES, 10 mM MgCl2 and 2 mM DTT by a microfluidic assay. The phosphorylation of a FAM labeled peptide substrate was monitored in the Caliper EZ Reader II (Perkin Elmer). The assay condition for each batch of enzyme (Carna Biosciences) was optimized to obtain 10% conversion rate of peptide substrate.
The test compounds were dissolved in DMSO to a stock concentration of 10 mM. 3-fold serially diluted compounds with top concentration of 5 μM were pre-incubated with FLT3, FLT3ITD or FLT3D835Y for 10 min at ambient temperature. The final DMSO concentration of assay mixture was 1%. […] The reaction was stopped by adding 50 mM EITA. The reaction time for FLT3, FLT3ITD and FLT3D8335Y was 30 min, 40 min and 40 min, respectively.
And the well without compound but with equivalent DMSO was defined as no inhibition. The percent inhibition was calculated by the following formula. % Inhibition=(Conversionmax−Conversionsample)/(Conversionmax−Conversionmin)*100 • Conversionmax means the conversion rate in the positive well without addition of compound • Conversionmin means the conversion rate in the well without addition of enzyme • Conversionsample means the conversion rate of test compounds
The dose-response (percent inhibition) curve was plotted and IC50 values were determined by GraphPad software.

[1] = Rat colon pharmacokinetic study (plasma, colon, colon + fecal content); assay type: in vivo; conditions: SD rats, 10 mg/kg oral gavage; for Colon + Feces AUC: colon homogenized with fecal content; for Colon AUC: colon washed of fecal content; for AUC / Cmax / half-life: Sprague-Dawley (SD), rat; for AUC / Cmax: plasma; for half-life: in vivo
Protocol: The aim of this study was to obtain the pharmacokinetics of test articles in SD rats after oral administration. […] Rats were dosed with 10 mg/kg (1 mg/ml) via oral gavage. After dosing, blood and colon samples were collected at each time point (typically 0.5, 1, 3, 6, 24 hour). Blood was collected into appropriately labeled tubes containing K2EDTA as the anticoagulant. Plasma was obtained within one hour of blood collection by centrifugation at 8000g, 4-10° C. for 6 minutes, and then stored at −20° C. until analyzed by LC-MS/MS for quantification. Colon tissues were collected from exsanguinated rats at each time point. Collected colon tissue was divided into two parts. One part for the measurement of test articles in colon was washing three times by PBS to remove the fecal content before homogenization. The other part was homogenized with the fecal content for the measurement of test articles in colon and fecal content. Colon samples were homogenized in 1:5 (w/v) phosphate buffer (100 mM, pH 7.4). Homogenized samples were extracted with 3 fold volumes of acetonitrile and quantified against a standard curve with LC-MS/MS system.

[2] = Dog pharmacokinetic study (intravenous and oral); assay type: in vivo; conditions: plasma, Beagle dogs, oral, 5 mg/kg, solution
Protocol: Pharmacokinetic profile of test articles in rodent were evaluated in fasted male ICR mouse and Sprague-Dawley rats. […] Typically, mice were dosed with 2 mg/kg and 10 mg/kg by intravenous injection and oral gavage, respectively. Rats were dosed with 1 mg/kg and 5 mg/kg by intravenous injection and oral gavage, respectively. Beagle dogs were dosed with 1 mg/kg and 5 mg/kg by intravenous injection and oral gavage, respectively. After dosing, blood samples were collected at each time point. For IV injection group, time points were set at 5, 15, 30 min, and then 1, 2, 4, 8 and 24 hours after dosing. For oral gavage group, timepoints were set at 15, 30 m, and then 1, 2, 4, 8, and 24 hours. Blood was collected into appropriately labeled tubes containing K2EDTA as the anticoagulant. Plasma was obtained within 1 hours of blood collection by centrifugation at 8000×g and 4° C. for 6 minutes, and then stored at −20° C. until analyzed by LCMS/MS for quantification.

[3] = Dog pharmacokinetic study (intravenous and oral); assay type: in vivo; conditions: plasma, Beagle dogs, oral, 20 mg/kg, solution
[4] = Rat pharmacokinetic study (intravenous and oral); assay type: in vivo; conditions: Sprague-Dawley rats, oral, 2 mg/kg, solution

IC50 (FLT3): 1890 nM
SMILES: CCNC(=O)c1ccc(-c2nc(Nc3cnn(C)c3)ncc2C)cc1 [Example 222, N-ethyl-4-(5-methyl-2-((1-methyl-1H-pyrazol-4-yl)amino)pyrimidin-4-yl)benzamide]

Colon + Feces AUC [1]: 559,570 h*ng/g
Colon AUC [1]: 3860 ng·h/g
AUC [1]: 0.4 ng·h/mL
Cmax [1]: 1.6 ng/mL
SMILES: C[C@@H](C#N)NC(=O)c1ccc(-c2nc(Nc3cnn(C4CCN(C)CC4)c3)ncc2Cl)cc1 [Example 43, (S)-4-(5-Chloro-2-((1-(1-methylpiperidin-4-yl)-1H-pyrazol-4-yl)amino)pyrimidin-4-yl)-N-(1-cyanoethyl)benzamide]

AUC [2]: 93.6 ng·h/mL
Cmax [2]: 37.9 ng/mL
bioavailability [2]: 4.6%
half-life [2]: 1.66 h
Colon + Feces AUC [1]: 1,629,181 h*ng/g
Colon AUC [1]: 6898 ng·h/g
AUC [1]: 23.7 ng·h/mL
Cmax [1]: 16 ng/mL
SMILES: Cc1cnc(Nc2cnn(C3CCN(C(=O)CO)CC3)c2)nc1-c1ccc(C(=O)N[C@@H](C)C#N)cc1 [Example 119, (S)—N-(1-cyanoethyl)-4-(2-((1-(1-(2-hydroxyacetyl)piperidin-4-yl)-1H-pyrazol-4-yl)amino)-5-methylpyrimidin-4-yl)benzamide]

IC50 (FLT3): 1100 nM
SMILES: Cc1cnc(Nc2cnn(C)c2)nc1-c1ccc(C(=O)NC(C)C)cc1 [Example 223, N-isopropyl-4-(5-methyl-2-((1-methyl-1H-pyrazol-4-yl)amino)pyrimidin-4-yl)benzamide]

AUC [3]: 57.2 ng·h/mL
Cmax [3]: 58 ng/mL
bioavailability [3]: 1.8%
half-life [3]: 0.439 h
Colon + Feces AUC [1]: 545,501 h*ng/g
Colon AUC [1]: 6,623 h*ng/g
half-life [1]: 1.6 h
AUC [1]: 96 ng·h/mL
Cmax [1]: 68.8 ng/mL
F [4]: 1.9%
AUC ([4]; male, rat, plasma): 29.8 ng·h/mL
Cmax ([4]; male, rat, plasma): 40.4 ng/mL
half-life ([4]; male, rat, plasma): 0.38 h
SMILES: Cc1cnc(Nc2cnn(CC#N)c2)nc1-c1ccc(C(=O)NCC#N)cc1 [Example 4, N-(Cyanomethyl)-4-(2-((1-(cyanomethyl)-1H-pyrazol-4-yl)amino)-5-methylpyrimidin-4-yl)benzamide]

IC50 (FLT3): 10.9 nM
SMILES: Cn1cc(Nc2ncc(Cl)c(-c3ccc(C(=O)NCC#N)cc3)n2)cn1 [Example 34, 4-(5-Chloro-2-((1-methyl-1H-pyrazol-4-yl)amino)pyrimidin-4-yl)-N-(cyanomethyl)benzamide]

IC50 (FLT3): 23.6 nM
SMILES: C[C@@H](C#N)NC(=O)c1ccc(-c2nc(Nc3cnn(C)c3)ncc2Cl)cc1 [Example 125, (S)-4-(5-chloro-2-((1-methyl-1H-pyrazol-4-yl)amino)pyrimidin-4-yl)-N-(1-cyanoethyl)benzamide]

IC50 (FLT3): 6.73 nM
SMILES: C[C@@H](C#N)NC(=O)c1ccc(-c2nc(Nc3cnn(C4CC4)c3)ncc2Cl)cc1 [Example 111, (S)-4-(5-Chloro-2-((1-cyclopropyl-1H-pyrazol-4-yl)amino)pyrimidin-4-yl)-N-(1-cyanoethyl)benzamide]

AUC [2]: 27.9 ng·h/mL
Cmax [2]: 11 ng/mL
bioavailability [2]: 0.9%
SMILES: C[C@@H](C#N)NC(=O)c1ccc(-c2nc(Nc3cnn(C4CCNCC4)c3)ncc2Cl)cc1 [Example 165, (S)-4-(5-chloro-2-((1-(piperidin-4-yl)-1H-pyrazol-4-yl)amino)pyrimidin-4-yl)-N-(1-cyanoethyl)benzamide]

AUC [2]: 527 ng·h/mL
Cmax [2]: 125 ng/mL
bioavailability [2]: 19.1%
half-life [2]: 3.15 h
Colon + Feces AUC [1]: 827,222 h*ng/g
Colon AUC [1]: 3,961 h*ng/g
half-life [1]: 0.5 h
AUC [1]: 8.9 ng·h/mL
Cmax [1]: 9.3 ng/mL
SMILES: CC[C@@H](C#N)NC(=O)c1ccc(-c2nc(Nc3cnn(C4CCN(C)CC4)c3)ncc2C)cc1 [Example 184, (S)—N-(1-Cyanopropyl)-4-(5-methyl-2-((1-(1-methylpiperidin-4-yl)-1H-pyrazol-4-yl)amino)pyrimidin-4-yl)benzamide]

IC50 (FLT3): 3.36 nM
SMILES: CC[C@@H](C#N)NC(=O)c1ccc(-c2nc(Nc3cnn(C4CC4)c3)ncc2Cl)cc1 [Example 61, (S)-4-(5-chloro-2-((1-cyclopropyl-1H-pyrazol-4-yl)amino)pyrimidin-4-yl)-N-(1-cyanopropyl)benzamide]

IC50 (FLT3): 5.35 nM
SMILES: N#CCNC(=O)c1ccc(-c2nc(Nc3cnn(C4CC4)c3)ncc2Cl)cc1 [Example 95, 4-(5-Chloro-2-((1-cyclopropyl-1H-pyrazol-4-yl)amino)pyrimidin-4-yl)-N-(cyanomethyl)benzamide]

IC50 (FLT3): 1200 nM
SMILES: CNC(=O)c1ccc(-c2nc(Nc3cnn(C)c3)ncc2C)cc1 [Example 10, N-Methyl-4-(5-methyl-2-((1-methyl-1H-pyrazol-4-yl)amino)pyrimidin-4-yl)benzamide]

AUC [2]: 29.9 ng·h/mL
Cmax [2]: 5.63 ng/mL
bioavailability [2]: 0.8%
half-life [2]: 3.34 h
SMILES: CC[C@@H](C#N)NC(=O)c1ccc(-c2nc(Nc3cnn(C4CCNCC4)c3)ncc2Cl)cc1 [Example 183, (S)-4-(5-chloro-2-((1-(piperidin-4-yl)-1H-pyrazol-4-yl)amino)pyrimidin-4-yl)-N-(1-cyanopropyl)benzamide]
